The target of one data set is T1, Gi-coupled receptor APJ (Homo sapiens, UniProt P35414).
T1 sequence (P35414 1-380): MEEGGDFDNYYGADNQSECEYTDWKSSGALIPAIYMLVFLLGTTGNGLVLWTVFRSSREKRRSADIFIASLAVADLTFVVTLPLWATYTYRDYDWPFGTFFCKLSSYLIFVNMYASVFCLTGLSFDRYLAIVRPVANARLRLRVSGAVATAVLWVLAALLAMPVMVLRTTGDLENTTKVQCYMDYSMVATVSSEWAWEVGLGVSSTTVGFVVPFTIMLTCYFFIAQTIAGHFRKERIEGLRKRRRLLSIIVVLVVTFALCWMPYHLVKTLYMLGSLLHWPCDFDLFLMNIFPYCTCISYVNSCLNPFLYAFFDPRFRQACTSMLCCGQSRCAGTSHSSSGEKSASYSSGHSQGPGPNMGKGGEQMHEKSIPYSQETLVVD
The data set can be described thus: HTRF cAMP assay, inhibition of NKH477 stimulated cAMP in HEK cells stably expressing APJ (APJ-h HEK 293 cells). The settings on record: HEK cells stably expressing APJ. Type of data set: cell-based. An excerpt: HTRF (homogeneous time resolved fluorescence) is a technology developed by Cisbio Bioassays based on TR-FRET (time-resolved fluorescence resonance energy transfer). Cisbio Bioassays has developed a wide selection of HTRF-based assays compatible with whole cells, thereby enabling functional assays to run under more physiological conditions. The IP-One assays are competitive immunoassays using cryptate-labeled anti-IP1 monoclonal antibody and d2-labeled IP1. IP1 is a relatively stable downstream metabolite of IP3, and accumulates in cells following Gq receptor activation.
cAMP kits based on a competitive immunoassay using cryptate-labeled anti-cAMP antibody and d2-labeled cAMP were used to assay the effects of APJ compounds of the present invention. […] Cells are treated with […] doxycycline and seeded in all white 96 well plates @ 40 k/well overnight.
(In TR-FRET formats the signal depends on donor and acceptor labels being close together.)

A further data set concerns the target T2, APJ receptor (Homo sapiens, UniProt P35414).
T2 construct: expressed in transfected cells; host or cells: Human TRex cells (doxycycline-inducible)
T2 sequence (P35414 1-380): T1 sequence (P35414 1-380)
The data set can be described thus: HTRF cAMP assay, inhibition of NKH477 stimulated cAMP in Human TRex cells expressing APJ upon doxycycline induction (APJ-hTREX). In kind it is cell-based. The settings on record: for Ranking: class combining EC50 and % histamine; for percent intrinsic activity at 0.3 µM: read-out: % IA (@ 300 nM). In short, it runs like this:
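Cells stimulated with NKH477 and cAMP measured by HTRF competitive immunoassay (cryptate anti-cAMP antibody, d2-labeled cAMP). APJ-hTREX cells induced with […] doxycycline and seeded overnight at 40 k/well.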

Data set [1] has as its target T3, APJ receptor (β-arrestin recruitment) (Homo sapiens, UniProt P35414).
T3 sequence (P35414 1-380): T1 sequence (P35414 1-380)
Nature of the data set: β-Arrestin signaling assay (DiscoveRx PathHunter, enzyme fragment complementation). Type of data set: cell-based. As to conditions: for β-arrestin recruitment (dose dependent increase in chemiluminescence): in words; for Emax: read-out: β-arrestin Signaling Max Response. An excerpt: Activation of the β-Arrestin signaling pathway was monitored using the commercially available DiscoveRx PathHunter® assay. This assay employs a homogenous, non-imaging assay format called Enzyme Fragment Complementation (EFC) using β-galactosidase (β-Gal) as the functional reporter. […] EA is fused to β-Arrestin and ED is fused to the GPCR of interest. When the GPCR is activated and β-Arrestin is recruited to the receptor, ED and EA complementation occurs, restoring βGal activity which is measured using chemiluminescent PathHunter® Detection Reagent.
On the technique in general: Recruitment of arrestin is a read-out of receptor activation apart from second messengers.

The record followed here is patent publication US20150011466A1, “APJ Receptor Compounds” (priority 2012, published 2015).

Read-outs that look alike come from different tables or passages of the source. Where a SMILES comes first, the peptide text is derived from it. [ ]: non-standard residue; d: D form. The star is where a group is joined. Lithocholoyl = C[C@H](CCC(=O)*)[C@H]1CC[C@H]2[C@@H]3CC[C@@H]4C[C@H](O)CC[C@]4(C)[C@H]3CC[C@]12C; Palmitoyl = CCCCCCCCCCCCCCCC(=O)*

What is called EC50 is the concentration at which the effect is half-maximal. As to `CCCCCCCCCCCCCCCC(=O)N[C@H](C(=O)N[C@H](C(=O)N[C@@H](Cc1ccccc1)C(=O)N[C@@H](CCCNC(=N)N)C(=O)N[C@@H](CO)C(=O)N[C@@H](CO)C(=O)N[C@@H](CCC(=O)O)C(=O)N[C@H](CCCCN)C(=O)N[C@@H](CCCNC(=N)N)C(=O)N[C@@H](CCCNC(=N)N)C(=O)N[C@@H](CO)C(=O)N[C@@H](C)C(=O)N[C@@H](CC(=O)O)C(=O)N[C@H](C(=O)N[C@@H](Cc1ccccc1)C(=O)N[C@H](C(N)=O)[C@@H](C)CC)[C@@H](C)CC)C(C)C)[C@@H](C)O` [Compound 1] (Palmitoyl-TVFRSSE[dK]RRSADIFI-NH2), the “inhibition of NKH477 stimulated increase in cAMP (concentration response curves, FIGS. 1A-1E)” value against Gi-coupled receptor APJ is “in a dose dependent manner”. At APJ receptor, a half-maximal response (EC50) required 56.7 nM; the Ranking entry was “***** (EC50<100 nM and % histamine<35%)”; the percent intrinsic activity at 0.3 µM stood at 81%. Further, in “Histimine (% vs. 48/40)”, the “Histimine (% vs. 48/40)” value was 33%.
For `CCCCCCCCCCCCCCCC(=O)N[C@@H](CCC(N)=O)C(=O)N[C@H](C(=O)N[C@@H](Cc1ccccc1)C(=O)N[C@@H](CCCNC(=N)N)C(=O)N[C@@H](CO)C(=O)N[C@@H](CO)C(=O)N[C@@H](CCC(=O)O)C(=O)N[C@H](CCCCN)C(=O)N[C@@H](CCCNC(=N)N)C(=O)N[C@@H](CCCNC(=N)N)C(=O)N[C@@H](CO)C(=O)N[C@@H](C)C(=O)N[C@@H](CC(=O)O)C(=O)N[C@H](C(=O)N[C@@H](Cc1ccccc1)C(=O)N[C@H](C(N)=O)[C@@H](C)CC)[C@@H](C)CC)C(C)C` [Compound 20] (Palmitoyl-QVFRSSE[dK]RRSADIFI-NH2), the “inhibition of NKH477 stimulated increase in cAMP (concentration response curves, FIGS. 1A-1E)” value at Gi-coupled receptor APJ is recorded as “in a dose dependent manner”. Moreover, at APJ receptor, the EC50 came out at 60.7 nM; the Ranking entry was “***** (EC50<100 nM and % histamine<35%)”; the percent intrinsic activity at 0.3 µM was found to be 61%. Moreover, the “Histimine (% vs. 48/40)” value in “Histimine (% vs. 48/40)” is on record as 29%.
Take `CCCCCCCCCCCCCCCC(=O)N[C@H](C(=O)N[C@H](C(=O)N[C@@H](Cc1ccccc1)C(=O)N[C@@H](CCCNC(=N)N)C(=O)NCC(=O)N[C@@H](CO)C(=O)N[C@@H](CCC(=O)O)C(=O)N[C@H](CCCCN)C(=O)N[C@@H](CCCNC(=N)N)C(=O)N[C@@H](CCCNC(=N)N)C(=O)N[C@@H](CO)C(=O)N[C@@H](C)C(=O)N[C@@H](CC(=O)O)C(=O)N[C@H](C(=O)N[C@@H](Cc1ccccc1)C(=O)N[C@H](C(N)=O)[C@@H](C)CC)[C@@H](C)CC)C(C)C)[C@@H](C)O` [Compound 72] (Palmitoyl-TVFRGSE[dK]RRSADIFI-NH2; C-terminus assumed): on APJ receptor, the EC50 worked out at 134 nM; the Ranking entry was “** (EC50 101-500 nM and % histamine>35%)”; the percent intrinsic activity at 0.3 µM was 75%. Further, in “Histimine (% vs. 48/40)”, the “Histimine (% vs. 48/40)” value is given as 44%.
`CCCCCCCCCCCCCCCC(=O)N[C@H](C(=O)N[C@H](C(=O)N[C@@H](Cc1ccccc1)C(=O)N[C@@H](CCCNC(=N)N)C(=O)N[C@@H](CO)C(=O)N[C@@H](CO)C(=O)N[C@@H](CCC(=O)O)C(=O)N[C@H](CCCCN)C(=O)N[C@@H](CCCNC(=N)N)C(=O)NCC(=O)N[C@@H](CO)C(=O)N[C@@H](C)C(=O)N[C@@H](CC(=O)O)C(=O)N[C@H](C(=O)N[C@@H](Cc1ccccc1)C(=O)N[C@H](C(N)=O)[C@@H](C)CC)[C@@H](C)CC)C(C)C)[C@@H](C)O` [Compound 76] (Palmitoyl-TVFRSSE[dK]RGSADIFI-NH2): the percent intrinsic activity at 0.3 µM on APJ receptor amounted to 46%. In the data set “Histimine (% vs. 48/40)”, the “Histimine (% vs. 48/40)” value amounted to 25%.
With `CCCCCCCCCCCCCCCC(=O)N[C@H](C(=O)N[C@H](C(=O)N[C@@H](Cc1ccccc1)C(=O)N[C@@H](CCCNC(=N)N)C(=O)N[C@@H](CO)C(=O)N[C@@H](CO)C(=O)N[C@@H](CCC(=O)O)C(=O)N[C@H](CCCCN)C(=O)N[C@@H](CCCNC(=N)N)C(=O)N[C@@H](CCCNC(=N)N)C(=O)NCC(=O)N[C@@H](C)C(=O)N[C@@H](CC(=O)O)C(=O)N[C@H](C(=O)N[C@@H](Cc1ccccc1)C(=O)N[C@H](C(N)=O)[C@@H](C)CC)[C@@H](C)CC)C(C)C)[C@@H](C)O` [Compound 77] (Palmitoyl-TVFRSSE[dK]RRGADIFI-NH2), the percent intrinsic activity at 0.3 µM on APJ receptor amounted to 64%. In “Histimine (% vs. 48/40)”, the “Histimine (% vs. 48/40)” value was found to be 53%.
For the molecule `CCCCCCCCCCCCCCCC(=O)N[C@H](C(=O)N[C@H](C(=O)N[C@@H](Cc1ccccc1)C(=O)N[C@@H](CCCNC(=N)N)C(=O)N[C@@H](CO)C(=O)N[C@@H](CO)C(=O)N[C@@H](CCC(=O)O)C(=O)N[C@H](CCCCN)C(=O)N[C@@H](CCCNC(=N)N)C(=O)N[C@@H](CCCNC(=N)N)C(=O)N[C@@H](CO)C(=O)N[C@@H](C)C(=O)NCC(=O)N[C@H](C(=O)N[C@@H](Cc1ccccc1)C(=O)N[C@H](C(N)=O)[C@@H](C)CC)[C@@H](C)CC)C(C)C)[C@@H](C)O` [Compound 78] (Palmitoyl-TVFRSSE[dK]RRSAGIFI-NH2), the percent intrinsic activity at 0.3 µM at APJ receptor stood at 60%. Besides, the “Histimine (% vs. 48/40)” value in the data set “Histimine (% vs. 48/40)” is 62%.
For `CCCCCCCCCCCCCCCC(=O)N[C@H](C(=O)N[C@H](C(=O)N[C@@H](Cc1ccccc1)C(=O)N[C@@H](CCCNC(=N)N)C(=O)N[C@@H](CO)C(=O)N[C@@H](CO)C(=O)N[C@@H](CCC(=O)O)C(=O)N[C@H](CCCCN)C(=O)N[C@@H](CCCNC(=N)N)C(=O)N[C@@H](CCCNC(=N)N)C(=O)N[C@@H](CO)C(=O)N[C@@H](C)C(=O)N[C@@H](CC(=O)O)C(=O)N[C@H](C(=O)NCC(=O)N[C@H](C(N)=O)[C@@H](C)CC)[C@@H](C)CC)C(C)C)[C@@H](C)O` [Compound 79] (Palmitoyl-TVFRSSE[dK]RRSADIGI-NH2), in that order: 39% and 43%.
For `CCCCCCCCCCCCCCCC(=O)N[C@H](C(=O)N[C@H](C(=O)N[C@@H](Cc1ccccc1)C(=O)N[C@@H](CCCNC(=N)N)C(=O)N[C@@H](CO)C(=O)N[C@@H](CO)C(=O)N[C@@H](CCC(=O)O)C(=O)N[C@H](CCCCN)C(=O)N[C@@H](CCCNC(=N)N)C(=O)N[C@@H](CCCNC(=N)N)C(=O)N[C@@H](CO)C(=O)N[C@@H](C)C(=O)N[C@@H](CC(=O)O)C(=O)N[C@H](C(=O)N[C@@H](Cc1ccccc1)C(=O)NCC(N)=O)[C@@H](C)CC)C(C)C)[C@@H](C)O` [Compound 80] (Palmitoyl-TVFRSSE[dK]RRSADIFG-NH2) the same measures were 35% and 52%.
Regarding `CC[C@H](C)[C@H](NC(=O)[C@H](Cc1ccccc1)NC(=O)[C@@H](NC(=O)[C@H](CC(=O)O)NC(=O)[C@H](C)NC(=O)[C@H](CO)NC(=O)[C@H](CCCNC(=N)N)NC(=O)[C@H](CCCNC(=N)N)NC(=O)[C@H](CCCCN)NC(=O)[C@H](CCC(=O)O)NC(=O)[C@H](CO)NC(=O)[C@H](CO)NC(=O)[C@H](CCCNC(=N)N)NC(=O)[C@H](CC(=O)O)NC(=O)[C@@H](NC(=O)[C@@H](NC(=O)CC[C@@H](C)[C@H]1CC[C@H]2[C@@H]3CC[C@@H]4C[C@H](O)CC[C@]4(C)[C@H]3CC[C@]12C)[C@@H](C)O)C(C)C)[C@@H](C)CC)C(N)=O` [Compound 82] (Lithocholoyl-TVDRSSEKRRSADIFI-NH2; N-terminus assumed), in data set [1], the “β-arrestin recruitment (dose dependent increase in chemiluminescence)” value is listed as “weakly engaged” and the Emax worked out at 20%.
Turning to `CCCCCCCCCCCCCCCC(=O)N[C@H](C(=O)N[C@H](C(=O)N[C@@H](Cc1ccccc1)C(=O)N[C@@H](CCC(N)=O)C(=O)N[C@@H](CO)C(=O)N[C@@H](CCC(=O)O)C(=O)N[C@H](CCCCN)C(=O)N[C@@H](CCCNC(=N)N)C(=O)N[C@@H](CCCNC(=N)N)C(=O)N[C@@H](CO)C(=O)N[C@@H](C)C(=O)N[C@@H](CC(=O)O)C(=O)N[C@@H](CCC(N)=O)C(=O)N[C@@H](Cc1ccccc1)C(=O)N[C@H](C(N)=O)[C@@H](C)CC)C(C)C)[C@@H](C)O` [Compound 87] (Palmitoyl-TVFQSE[dK]RRSADQFI-NH2; C-terminus assumed), in data set [1] (PathHunter chemiluminescence, read-out: β-arrestin Signaling EC50), the half-maximal effective concentration (EC50) was found to be 34.4 nM. In addition, in data set [1], the “β-arrestin recruitment (dose dependent increase in chemiluminescence)” value was “weakly engaged” and the Emax was found to be 47%. Moreover, the Ranking result at APJ receptor was “*** (EC50<100 nM and % histamine>35%)”. At APJ receptor (inhibition of NKH477 stimulated cAMP, APJ-hTREX cells, read-out: APJ-hTREX EC50), the half-maximal effective concentration (EC50) is 11 nM. In addition, the “Histimine (% vs. 48/40)” value in “Histimine (% vs. 48/40)” was 48%.
